Series [1] has as its system HIV-1. As to the kind of experiment: Anti-Viral Assay (method of Pauwels et al.). It counts as cell-based. To be noted: Human immunodeficiency virus 1, read-out: Anti-Viral Assay. As for the experimental part: Anti-viral assays were carried out by the method described by R. E. Pauwels et al. J. Virol. Methods 1988 20(4):309-322.
Series [2] has as its target HIV-1 RT (Human immunodeficiency virus type 1 group M subtype B, UniProt P03366). As to the kind of experiment: HIV Reverse Transcriptase Assay: Inhibitor IC50 Determination. It counts as biochemical. To be noted: purified recombinant enzyme, poly(rA)/oligo(dT)16 template-primer, 37° C. 30 min. As for the experimental part: HIV Reverse Transcriptase Assay: Inhibitor IC50 Determination
HIV-1 RT assay was carried out in 96-well Millipore MultiScreen MADVNOB50 plates using purified recombinant enzyme and a poly(rA)/oligo(dT)16 template-primer in a total volume of 50 μL. The assay constituents were 50 mM Tris/HCl, 50 mM NaCl, 1 mM EDTA, 6 mM MgCl2, 5 μM dTTP, 0.15 μCi [^3H] dTTP, 5 μg/ml poly (rA) pre annealed to 2.5 μg/ml oligo (dT)16 and a range of inhibitor concentrations in a final concentration of 10% DMSO. Reactions were initiated by adding 4 nM HIV-1 RT and after incubation at 37° C. for 30 min, they were stopped by the addition of 50 μl ice cold 20% TCA and allowed to precipitate at 4° C. for 30 min. The precipitates were collected by applying vacuum to the plate and sequentially washing with 3×200 μl of 10% TCA and 2×200 μl 70% ethanol. Finally, the plates were dried and radioactivity counted in a Packard TopCounter after the addition of 25 μl scintillation fluid per well. IC50's were calculated by plotting % inhibition versus log10 inhibitor concentrations.

Take `Cc1cc(C#N)ccc1Oc1ccc(CC(=O)Nc2ccc(S(N)(=O)=O)cc2Br)c(C)c1C` [Compound I-24, N-(2-Bromo-4-sulfamoyl-phenyl)-2-[4-(4-cyano-2-methyl-phenoxy)-2,3-dimethyl-phenyl]-acetamide]: the EC50 in series [1] worked out at 2.6 nM. The IC50 in series [2] is 202 nM.
In turn, `N#Cc1cc(Cl)cc(Oc2ccc(CC(=O)Nc3ccc(CS(N)(=O)=O)cc3)cc2Br)c1` [Compound I-49, 2-[3-Bromo-4-(3-chloro-5-cyano-phenoxy)-phenyl]-N-(4-sulfamoylmethyl-phenyl)-acetamide] had a melting point of 133.4 to 135.3 °C. The half-inhibitory concentration (IC50) in series [2] was 2350 nM.
The like results for `N#Cc1cc(Cl)cc(Oc2ccc(CC(=O)Nc3ccc(S(N)(=O)=O)cc3Br)cc2Br)c1` [Compound I-50, 2-[3-Bromo-4-(3-chloro-5-cyano-phenoxy)-phenyl]-N-(2-bromo-4-sulfamoyl-phenyl)-acetamide] were, in that order, 168.1 to 170.4 °C and 13.5 nM.

For the origin of these results see US7388111B2, “Non-nucleoside reverse transcriptase inhibitors” (Roche Palo Alto LLC, priority 2005, dated 2008).
